Laboratory results published in patent publication JP2022046588A, “治療用組成物およびその使用” (priority 2016, dated 2017).
Read-outs that look alike come from different tables or passages of the source.

How the values were obtained:
[1] = system: human colon adenocarcinoma cell line DLD-1 [ヒト結腸腺癌細胞株DLD-1]; assay: MTT cell proliferation assay, DLD-1; type: cell-based
[2] = system: human melanoma cell line A-2058 [ヒト黒色腫細胞株A-2058]; assay: MTT cell proliferation assay, A-2058; type: cell-based
[3] = system: human epidermoid carcinoma cell line A-431 [ヒト類表皮癌細胞株A-431]; assay: MTT cell proliferation assay, A-431; type: cell-based; conditions: for inhibition at 50 µg/mL: Homo sapiens, A-431, Example 7, 50 μg/ml, 24 h
[4] = system: human basal cell carcinoma cell line TE 354.T [ヒト基底細胞癌細胞株TE 354.T]; assay: MTT cell proliferation assay, TE 354.T; type: cell-based; conditions: for inhibition at 50 µg/mL: Homo sapiens, Example 8, 50 μg/ml, 24 h
[5] = system: human esophageal cancer cell line KYSE-30 [ヒト食道癌細胞株KYSE-30]; assay: MTT cell proliferation assay, KYSE-30; type: cell-based; conditions: for inhibition at 58.5 µg/mL: low but significant
[6] = system: human gastric cancer cell line NCI-N87 [ヒト胃癌細胞株NCI-N87]; assay: MTT cell proliferation assay, NCI-N87
[7] = Homo sapiens, NCI-N87, read-out: antiproliferative activity

In the case of `O=c1[nH]cc(F)c(=O)[nH]1` [5-フルオロウラシル], the “antiproliferative activity (in words)” value ([1]; Example 9, 5-FU at 0.65 and 1.95 μg/ml) was “低い且つ有意ではない活性”, the “antiproliferative activity (in words)” value ([1]; Example 10, 5-FU at 6.5, 19.5 and 58.5 μg/ml) was “低い且つ有意ではない活性” and the “antiproliferative activity (in words)” value ([2]; Example 6, 5-FU at 0.195, 0.65 and 1.95 μg/ml) was “低い且つ有意ではない活性”. For the same compound, the “antiproliferative activity (in words)” value ([3]; Example 7, 5-FU at 0.195, 0.65 and 1.95 μg/ml) was “低い且つ有意ではない活性”, the “antiproliferative activity (in words)” value ([4]; Example 8, 5-FU at 0.195, 0.65 and 1.95 μg/ml) was “低い且つ有意ではない活性” and the “antiproliferative activity (in words)” value ([5]; Example 13, 5-FU at 6.5 and 19.5 μg/ml) was “有意ではない活性”. For the same compound, the “antiproliferative activity (in words)” value ([5]; Example 14, 5-FU at 6.5 and 19.5 μg/ml) was “有意ではない活性”, the inhibition at 58.5 µg/mL ([5]; Homo sapiens, KYSE-30, Example 13, 5-FU at 58.5 μg/ml, read-out: antiproliferative activity) was 17% and the inhibition at 58.5 µg/mL ([5]; Homo sapiens, KYSE-30, Example 14, 5-FU at 58.5 μg/ml, read-out: inhibition of proliferation) was 16.8%. For the same compound, the “activity ranking of 5-FU concentrations (in words)” value ([6]; Example 11, 5-FU at 6.5 μg/ml (of 6.5, 19.5, 58.5 μg/ml)) was “最も高い活性”, the “antiproliferative activity (in words)” value ([6]; Example 11, 5-FU at 6.5, 19.5 and 58.5 μg/ml) was “低い且つ有意ではない活性” and the “activity ranking of 5-FU concentrations (in words)” value ([6]; Example 12, 5-FU at 6.5 μg/ml (of 6.5, 19.5, 58.5 μg/ml)) was “最も高い活性”. The “antiproliferative activity (in words)” value ([6]; Example 12, 5-FU at 6.5, 19.5 and 58.5 μg/ml) was “低い且つ有意ではない活性”.

With `CCCCCCCCCCCCC(O)CCCCC(O)CC(=O)OCC(O)CO` (stereo not drawn) [GLY-0Ac-1, 1-(3,8-ジヒドロキシエイコサノイル)グリセロール] the inhibition at 50 µg/mL [3] was 81.5% and the inhibition at 50 µg/mL [4] was 38%.

For `CCCCCCCCCCCCCC(O)CCCCC(O)CC(=O)OCC(O)CO` (stereo not drawn) [GLY-0Ac-2, 1-(3,8-ジヒドロキシヘンエイコサノイル)グリセロール], the “potency ranking (in words)” value ([2]; Example 6, 50 μg/ml, highly purified compounds) was “最も強力”.

Compound `CCCCCCCCCCCCC(O)CCCCC(O)CC(=O)OCC(O)COC(C)=O` (stereo not drawn) [GLY-1Ac-1, 1-(3,8-ジヒドロキシエイコサノイル)3-アセトキシグリセロール] has an inhibition at 25 µg/mL ([1]; Homo sapiens, DLD-1, Example 9, second assay (retest), 25 μg/ml, read-out: antiproliferative activity) of 13%, an inhibition at 50 µg/mL ([1]; Homo sapiens, DLD-1, Example 9, second assay (retest), 50 μg/ml, read-out: antiproliferative activity) of 94% and an inhibition at 50 µg/mL [3] of 80.6%. The inhibition at 50 µg/mL [4] was 27.3%, the “potency ranking (in words)” value ([5]; Example 13, 50 μg/ml) was “最も強力” and the inhibition at 10 µg/mL ([5]; Homo sapiens, KYSE-30, Example 13, 10 μg/ml, not statistically significant, read-out: antiproliferative activity) was 9%. The inhibition at 25 µg/mL ([5]; Homo sapiens, KYSE-30, Example 13, 25 μg/ml, read-out: antiproliferative activity) was 50%, the inhibition at 10 µg/mL [6, 7] was 39% and the inhibition at 25 µg/mL [6, 7] was 86%.

With `CCCCCCCCCCCCCC(O)CCCCC(O)CC(=O)OCC(O)COC(C)=O` (stereo not drawn) [GLY-1Ac-2, 1-(3,8-ジヒドロキシヘンエイコサノイル)3-アセトキシグリセロール] the “potency ranking (in words)” value ([1]; Example 9, first assay, 50 μg/ml) was “最も強力”.

For `CCCCCCCCCCCCCCCC(=O)OCC(O)CO` (stereo not drawn) [MGP, モノパルミチン酸グリセロール], the inhibition at 50 µg/mL ([5]; Homo sapiens, KYSE-30, Example 13, 50 μg/ml, read-out: inhibition of proliferation / antiproliferative activity) was 75%.
